{
  "source": "patent US20250032465A1",
  "about": "“METHODS OF TREATING CNS DISORDERS” (HANGZHOU HIGHLIGHTLL PHARMACEUTICAL CO., LTD, priority 2021, published 2025)",
  "key": {"[1]": {"biological_target": "T1, JAK1 (Homo sapiens, UniProt P23458)", "T1 construct": "purchased Reaction Biology Corp, Malvern, PA (contract testing)", "T1 sequence (P23458 whole entry)": "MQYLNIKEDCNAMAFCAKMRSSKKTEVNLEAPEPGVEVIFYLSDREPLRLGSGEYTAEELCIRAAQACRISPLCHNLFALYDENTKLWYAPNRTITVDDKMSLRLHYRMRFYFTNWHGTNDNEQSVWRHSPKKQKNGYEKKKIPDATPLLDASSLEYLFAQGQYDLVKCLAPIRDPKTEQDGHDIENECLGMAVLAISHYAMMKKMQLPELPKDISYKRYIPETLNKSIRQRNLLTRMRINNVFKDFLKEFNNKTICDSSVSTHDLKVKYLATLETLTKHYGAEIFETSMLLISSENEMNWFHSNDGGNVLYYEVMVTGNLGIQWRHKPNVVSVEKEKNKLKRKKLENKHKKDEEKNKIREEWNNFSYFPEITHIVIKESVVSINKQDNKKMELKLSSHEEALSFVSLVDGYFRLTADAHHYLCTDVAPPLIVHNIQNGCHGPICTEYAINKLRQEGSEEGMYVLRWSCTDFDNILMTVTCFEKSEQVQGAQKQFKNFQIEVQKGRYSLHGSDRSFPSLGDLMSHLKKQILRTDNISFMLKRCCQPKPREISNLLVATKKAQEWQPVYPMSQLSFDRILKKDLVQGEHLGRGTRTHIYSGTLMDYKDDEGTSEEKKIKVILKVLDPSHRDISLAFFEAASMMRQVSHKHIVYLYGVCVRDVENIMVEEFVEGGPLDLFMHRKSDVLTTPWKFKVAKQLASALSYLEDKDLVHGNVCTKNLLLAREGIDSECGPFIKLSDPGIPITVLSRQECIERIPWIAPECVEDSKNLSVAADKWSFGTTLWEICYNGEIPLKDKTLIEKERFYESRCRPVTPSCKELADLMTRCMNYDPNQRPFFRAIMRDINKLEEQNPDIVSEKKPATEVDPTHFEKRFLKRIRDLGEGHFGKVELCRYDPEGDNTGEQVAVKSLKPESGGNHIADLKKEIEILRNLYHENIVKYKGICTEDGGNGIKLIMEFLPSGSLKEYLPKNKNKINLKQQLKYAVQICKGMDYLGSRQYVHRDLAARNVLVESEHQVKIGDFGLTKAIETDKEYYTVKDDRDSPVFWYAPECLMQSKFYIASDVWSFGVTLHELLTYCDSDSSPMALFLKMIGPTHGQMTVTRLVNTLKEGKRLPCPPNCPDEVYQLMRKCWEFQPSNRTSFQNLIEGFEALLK", "test": "JAK1 biochemical test (33P-ATP filter binding, Reaction Biology)", "conditions": "read-out: Inhibition of JAK1 (IC50)", "procedure": "(§1) The tests were conducted by Reaction Biology Corp, Malvern, PA (Anastassiadis et al. Nat Biotechnol. 2011; 29(11):1039-45). The step is briefly described as follows, using the basic reaction buffer: 20 mM Hepes (pH 7.5), 10 mM MgCl2, 1 mM EGTA, 0.02% Brij35, 0.02 mg/ml BSA, 0.1 mM Na3VO4, 2 mM DTT and 1% DMSO. The required cofactor was added to each kinase reaction respectively. Each reaction was performed according to the following reaction steps: 1) Preparing the designated substrate in the newly prepared basic reaction buffer; 2) Transferring the required cofactor to the above matrix solution; 3) Transferring the designated kinase to the substrate solution and mixing well slightly; 4) Transferring a compound of Formula (I) in DMSO to the kinase reaction mixture with Acoustic technique (Echo550; nanoliter range), culturing for 20 minutes at room temperature; 5) Introducing ^33P-ATP (specific activity: 10 μCi/μl) to the reaction mixture to trigger a reaction; 6) Culturing at room temperature and conducting a kinase reaction for 2 hours; 7) Plotting the reaction on P81 ion exchange paper; and 8) Testing the kinase activity with a filter binding assay. The results shown in Table 1 indicate that compounds of Formulae (I)-(III) are potent and selective TYK2/JAK1 inhibitors."}, "[2]": {"biological_target": "T2, JAK2 (Homo sapiens, UniProt O60674)", "T2 construct": "purchased Reaction Biology Corp, Malvern, PA (contract testing)", "T2 sequence (O60674 whole entry)": "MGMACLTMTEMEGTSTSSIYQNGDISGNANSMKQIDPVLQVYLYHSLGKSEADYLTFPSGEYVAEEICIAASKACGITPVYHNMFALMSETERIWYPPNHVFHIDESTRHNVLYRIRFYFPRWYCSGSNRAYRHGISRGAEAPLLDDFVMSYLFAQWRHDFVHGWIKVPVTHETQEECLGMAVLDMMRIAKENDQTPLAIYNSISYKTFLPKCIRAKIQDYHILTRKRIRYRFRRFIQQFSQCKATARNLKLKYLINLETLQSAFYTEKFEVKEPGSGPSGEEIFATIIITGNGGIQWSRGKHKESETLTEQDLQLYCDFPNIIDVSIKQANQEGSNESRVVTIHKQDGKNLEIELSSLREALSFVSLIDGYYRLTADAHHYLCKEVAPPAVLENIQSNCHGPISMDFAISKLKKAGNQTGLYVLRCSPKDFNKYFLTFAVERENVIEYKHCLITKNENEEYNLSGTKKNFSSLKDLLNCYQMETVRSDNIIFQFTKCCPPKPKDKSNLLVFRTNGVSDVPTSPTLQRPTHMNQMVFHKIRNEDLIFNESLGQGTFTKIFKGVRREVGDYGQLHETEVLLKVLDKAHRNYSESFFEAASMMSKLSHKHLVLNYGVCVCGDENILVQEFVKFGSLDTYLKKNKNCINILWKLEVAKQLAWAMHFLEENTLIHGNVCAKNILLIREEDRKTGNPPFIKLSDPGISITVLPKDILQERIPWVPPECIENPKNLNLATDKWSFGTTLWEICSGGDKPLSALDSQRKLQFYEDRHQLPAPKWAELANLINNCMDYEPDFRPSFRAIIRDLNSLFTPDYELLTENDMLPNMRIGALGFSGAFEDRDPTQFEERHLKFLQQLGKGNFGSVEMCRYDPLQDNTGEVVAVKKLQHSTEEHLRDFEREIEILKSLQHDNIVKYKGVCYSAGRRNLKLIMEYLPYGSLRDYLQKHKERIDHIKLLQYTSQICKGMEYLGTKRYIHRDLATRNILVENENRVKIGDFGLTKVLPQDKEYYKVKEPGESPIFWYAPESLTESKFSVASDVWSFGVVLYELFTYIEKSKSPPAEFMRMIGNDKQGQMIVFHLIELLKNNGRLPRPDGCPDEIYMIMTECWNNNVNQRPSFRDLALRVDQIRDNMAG", "test": "JAK2 biochemical test (33P-ATP filter binding, Reaction Biology)", "conditions": "read-out: Inhibition of JAK2 (IC50)", "procedure": "as §1"}, "[3]": {"biological_target": "T3, JAK3 (Homo sapiens, UniProt P52333)", "T3 construct": "purchased Reaction Biology Corp, Malvern, PA (contract testing)", "T3 sequence (P52333 1-1124)": "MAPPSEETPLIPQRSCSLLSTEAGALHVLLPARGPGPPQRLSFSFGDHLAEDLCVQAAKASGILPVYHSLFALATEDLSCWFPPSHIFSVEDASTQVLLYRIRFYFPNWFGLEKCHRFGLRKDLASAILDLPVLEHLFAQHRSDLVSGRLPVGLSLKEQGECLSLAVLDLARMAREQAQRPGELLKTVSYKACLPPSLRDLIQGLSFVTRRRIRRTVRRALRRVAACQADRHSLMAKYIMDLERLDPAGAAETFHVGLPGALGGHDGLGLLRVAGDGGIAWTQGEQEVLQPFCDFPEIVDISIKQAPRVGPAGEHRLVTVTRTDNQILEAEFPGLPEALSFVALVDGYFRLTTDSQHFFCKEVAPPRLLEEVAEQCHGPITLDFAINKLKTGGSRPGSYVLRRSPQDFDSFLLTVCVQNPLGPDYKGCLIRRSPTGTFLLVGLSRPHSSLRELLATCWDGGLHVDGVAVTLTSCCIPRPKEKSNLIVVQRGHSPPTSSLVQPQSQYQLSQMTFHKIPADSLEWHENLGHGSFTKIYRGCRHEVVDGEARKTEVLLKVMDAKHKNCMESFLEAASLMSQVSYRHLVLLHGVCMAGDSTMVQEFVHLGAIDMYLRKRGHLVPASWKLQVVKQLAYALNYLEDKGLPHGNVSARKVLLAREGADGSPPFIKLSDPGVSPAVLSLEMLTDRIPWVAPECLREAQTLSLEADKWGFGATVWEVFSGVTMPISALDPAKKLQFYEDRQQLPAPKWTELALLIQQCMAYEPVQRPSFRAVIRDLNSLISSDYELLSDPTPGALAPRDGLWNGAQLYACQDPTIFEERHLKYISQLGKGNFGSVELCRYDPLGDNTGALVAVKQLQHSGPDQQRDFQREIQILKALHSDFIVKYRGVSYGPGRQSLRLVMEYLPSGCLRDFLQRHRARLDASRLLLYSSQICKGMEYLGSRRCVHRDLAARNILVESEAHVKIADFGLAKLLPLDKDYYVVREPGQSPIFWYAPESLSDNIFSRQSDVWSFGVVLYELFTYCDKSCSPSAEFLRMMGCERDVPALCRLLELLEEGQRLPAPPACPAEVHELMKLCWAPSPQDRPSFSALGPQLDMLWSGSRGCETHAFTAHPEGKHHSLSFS", "test": "JAK3 biochemical test (33P-ATP filter binding, Reaction Biology)", "conditions": "read-out: Inhibition of JAK3 (IC50)", "procedure": "as §1"}, "[4]": {"test": "Brain penetration in rats", "assay_type": "in vivo", "conditions": "male, rat, 10 mg/kg oral gavage, 8 hour post-dosing", "procedure": "This testing was performed to test the ability of compounds to penetrate the blood-brain-barrier in rats. The testing was performed according to the following procedure: 1) For each compound, take 3 male rats with body weight of 217-228 g, formulate compound using 0.5% HPMC/water suspension at concentration of 1 mg/ml; 2) After fasting overnight, administer compound at 10 mg/kg by oral gavage; 3) Take plasma samples at 1, 2, 4, 8 hours post-dosing; 4) At 8 hour post-dosing, also take brain tissues and cerebrospinal fluid (CSF); 5) Analyze compound concentration in plasma, brain tissue, and CSF using LC-MS/MS method."}, "[5]": {"test": "Brain penetration in mice", "assay_type": "in vivo, C57BL/6 mice", "conditions": "male, mouse, 30 mg/kg oral gavage, 4-hour post-dosing", "procedure": "This testing was performed to test the ability of compounds to penetrate the blood-brain-barrier in mice. The testing was performed according to the following procedure: 1) for each compound, take 3 male C57BL/6 mice with body weight of 17-18 g, formulate compound using 0.5% HPMC/water suspension at concentration of 3 mg/ml; 2) After fasting overnight, administer compound at 30 mg/kg by oral gavage; 3) Take plasma samples at 1, 2, 4 hours post-dosing; 4) At 4-hour post-dosing, also take brain tissues and cerebrospinal fluid (CSF) fluid; 5) Analyze compound concentration in plasma, brain tissue, and CSF fluid using LC-MS/MS method."}, "[6]": {"system": "BV2 cells", "test": "IL-6, TNF and MCP-1 production in LPS-stimulated BV2 cells (CBA assay)", "assay_type": "cell-based", "conditions": "Mus musculus, BV-2, LPS-treated BV2 cells"}, "[7]": {"conditions": "read-out: Inhibition of IL-6 production"}, "[8]": {"conditions": "read-out: Inhibition of MCP-1 production"}, "[9]": {"conditions": "read-out: Inhibition of TNF production"}},
  "note": "Where two headings read alike, the source gives them in different places.",
  "data": [
    {"smiles": "Cc1nc2cnc3ccoc3c2n1[C@H]1CC[C@H](CC#N)OC1", "note": "[Formula (II)]", "values": [
      {"measurement": "IC50", "setting": "[1]", "result": "< 10", "unit": "nM"},
      {"measurement": "IC50", "setting": "[2]", "result": "> 100", "unit": "nM"},
      {"measurement": "IC50", "setting": "[3]", "result": "> 100", "unit": "nM"},
      {"measurement": "Kp at 8 h", "setting": "[4]; CSF/plasma, read-out: CSF (ng/ml)/ Plasma (ng/ml)", "result": "> 0.15"},
      {"measurement": "Kp at 8 h", "setting": "[4]; brain/plasma, read-out: Brain (ng/ml)/ Plasma (ng/ml)", "result": "> 0.4"},
      {"measurement": "Kp at 4 h", "setting": "[5]; C57BL/6, CSF/plasma, read-out: CSF (ng/ml)/ Plasma (ng/ml)", "result": "> 0.15"},
      {"measurement": "Kp at 4 h", "setting": "[5]; C57BL/6, brain/plasma, read-out: Brain (ng/ml)/ Plasma (ng/ml)", "result": "> 0.3"},
      {"measurement": "inhibition at 5 µM", "setting": "[6]; [7]", "result": 72.4, "unit": "%"},
      {"measurement": "inhibition at 5 µM", "setting": "[6]; [8]", "result": 83.3, "unit": "%"},
      {"measurement": "inhibition at 5 µM", "setting": "[6]; [9]", "result": 81.2, "unit": "%"},
      {"measurement": "inhibition at 15 µM", "setting": "[6]; [7]", "result": 83.6, "unit": "%"},
      {"measurement": "inhibition at 15 µM", "setting": "[6]; [8]", "result": 111, "unit": "%"},
      {"measurement": "inhibition at 15 µM", "setting": "[6]; [9]", "result": 118, "unit": "%"}
    ]}
  ]
}
